Test results published in US20250026796A1 (priority 2022, published 2025).

Target: SARS-CoV-2 E (2E) (Severe acute respiratory syndrome coronavirus 2, UniProt P0DTC4)
Format: cell-based

SARS-CoV-2 E (2E), sequence (P0DTC4 whole entry, looked up): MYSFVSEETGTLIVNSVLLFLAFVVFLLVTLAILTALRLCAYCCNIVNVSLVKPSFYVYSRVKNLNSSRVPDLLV

## MYSFVSEETGTLIVNSVL [MY18]
  Relative fluorescent intensity of DND-189 dye (proton homeostasis): significantly restores the proton homeostasis
